Patent US20150065470A1, “Steroid Sulfatase Inhibitor Regimen for the Treatment of Endometriosis” (priority 2012, published 2015)
Values joined by “and” are separate entries in the source; they are usually repeats but may differ in a detail not shown here. Identical values can stand only once.

Key:
[1] = target: T1, Steroid Sulfatase in endometrium (Homo sapiens, UniProt P08842); assay: STS activity in endometrium, Example 2 (LC-MS/MS); format: in vivo
T1 construct: from tissue; host or cells: endometrium (biopsies) of dosed women
T1 sequence (P08842 22-583): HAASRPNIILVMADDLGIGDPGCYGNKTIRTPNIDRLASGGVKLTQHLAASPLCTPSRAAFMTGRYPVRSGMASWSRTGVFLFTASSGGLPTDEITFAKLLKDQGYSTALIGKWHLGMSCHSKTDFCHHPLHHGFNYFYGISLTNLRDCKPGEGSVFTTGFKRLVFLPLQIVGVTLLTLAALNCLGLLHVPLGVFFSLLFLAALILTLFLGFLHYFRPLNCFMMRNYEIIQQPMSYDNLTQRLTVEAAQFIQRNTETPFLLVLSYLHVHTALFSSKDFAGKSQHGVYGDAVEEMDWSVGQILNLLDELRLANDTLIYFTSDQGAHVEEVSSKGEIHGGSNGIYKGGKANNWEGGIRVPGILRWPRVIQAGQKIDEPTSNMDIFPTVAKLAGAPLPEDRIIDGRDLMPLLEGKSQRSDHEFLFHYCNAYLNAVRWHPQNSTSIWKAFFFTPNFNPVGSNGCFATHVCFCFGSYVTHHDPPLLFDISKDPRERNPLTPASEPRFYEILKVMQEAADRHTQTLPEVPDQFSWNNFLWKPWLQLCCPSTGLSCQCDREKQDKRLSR
Protocol: STS activity was determined by spiking specimens with labelled E1-S and by measuring its conversion to E1 per gram protein under standardized incubation conditions using LC-MS/MS. Protein concentration was evaluated with a validated colorimetric assay (Bradford method).

[2] = Safety, tolerability and post-treatment menstruation cycles, Example 2
Source text: Menstruation cycle length was not influenced by the treatment. […] Sizes of right and left ovary differed slightly for each subject, but no clinically relevant changes were identified by the gynaecologists.

[3] = target: T2, STS activity in Peripheral Blood Mononuclear Cells (PBMCs) (Homo sapiens, UniProt P08842); assay: STS inhibition in PBMCs, loading and maintenance phase, Example 4; format: in vivo; conditions: concomitant NETA 5 mg daily, patients
T2 construct: Pharmacodynamic properties were investigated by assessment of the STS activity in PBMCs; endogenous in cells; host or cells: peripheral blood mononuclear cells (PBMCs) of dosed women
T2 sequence (P08842 22-583): T1 sequence (P08842 22-583)
Source text: The study is multicentre, randomised, two-arm, parallel group, double-blind, placebo controlled where eligible subjects were randomised on study day 1 in a 1:1 ratio into treatment group A or B between day 1 and day 4 of the menstrual bleeding.
The baseline is established in terms of endometriosis profile regarding pelvic pain, dysmenorrhea, dyspaneuria and bleeding pattern and those parameters are followed during the treatment. During the loading phase the subjects are monitored on day 7, day 21 and on week 4 and during the maintenance phase monthly on week 8, week 12 and week 16.

[4] = target: T3, STS activity in the uterus or in induced lesions (Mus musculus, UniProt P50427); conditions: highest dose (1 mg/kg daily oral, 21 days); cited from earlier work
T3 construct: host or cells: mouse uterus or induced endometriosis-like lesions
T3 sequence (P50427 23-624): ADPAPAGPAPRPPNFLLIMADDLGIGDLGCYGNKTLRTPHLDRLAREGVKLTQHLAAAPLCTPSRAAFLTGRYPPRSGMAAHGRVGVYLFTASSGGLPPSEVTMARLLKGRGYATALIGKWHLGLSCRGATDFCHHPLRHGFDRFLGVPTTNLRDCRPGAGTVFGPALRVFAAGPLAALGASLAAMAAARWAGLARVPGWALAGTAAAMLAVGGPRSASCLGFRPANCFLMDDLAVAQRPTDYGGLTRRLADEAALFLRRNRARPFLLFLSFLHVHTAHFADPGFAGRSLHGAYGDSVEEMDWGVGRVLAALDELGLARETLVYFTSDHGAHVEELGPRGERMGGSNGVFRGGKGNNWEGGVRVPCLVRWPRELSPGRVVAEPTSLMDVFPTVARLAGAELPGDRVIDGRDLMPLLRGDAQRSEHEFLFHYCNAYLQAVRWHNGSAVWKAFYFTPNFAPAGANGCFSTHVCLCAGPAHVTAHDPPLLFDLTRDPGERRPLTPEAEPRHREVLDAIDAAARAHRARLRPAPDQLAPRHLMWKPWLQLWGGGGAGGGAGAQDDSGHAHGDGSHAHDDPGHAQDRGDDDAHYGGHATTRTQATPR

In the case of C[C@]12CC[C@@H]3c4ccc(OS(N)(=O)=O)cc4CC[C@H]3[C@@H]1CC[C@@H]2O [E2MATE, Estradiol-3-o-sulfamate], the “AVG [%] average inhibition of Steroid Sulfatase in endometrium (average effect over time (AUC))” value ([1]; E2MATE 4 mg weekly and/or NETA 10 mg daily for 4 weeks) was 66.6 (2.7) % and 66.60%, the “STS inhibition [%] in endometrium” value ([1]; end of treatment, between Day 25 and Day 29) was 91% and 90.66% and the Emax ([1]; read-out: Emax [%] maximal inhibition of Steroid Sulfatase in endometrium) was 91%. For the same compound, the “STS inhibition [%] in endometrium, After treatment” value ([1]; third biopsy day, 1 month after the end of the treatment (approximately 50 days after dosing)) was 88% and 87.50%, the ovarian size ([2]; in vivo) was “no apparent effect” and the tolerability ([2]; multiple doses for 4 weeks, healthy pre-menopausal female subjects) was “well tolerated”. For the same compound, the “STS inhibition in PBMCs after the loading phase” value ([3]; Day 28, 16 mg over 4 weeks) was “almost complete”, the “STS inhibition in PBMCs at maintenance dose” value ([3]; Day 56, 2 mg/week) was “almost entire” and the “STS activity inhibition in the uterus or in induced lesions” value [4] was at most 36%.
